PubChem BioAssay (NCI)
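A five-concentration, 48-hour dose response in 96-well plates underlies each endpoint, interpolated linearly between surrounding concentrations. GI50: concentration for 50% inhibition of growth. TGI is the concentration that stops growth completely.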

What was measured:
Test in all cases: inhibition of tumour cell growth, NCI panel, 48 h
A549 NSCLC = tested on: A549 NSCLC
HCT-116 colon = tested on: HCT-116 colon
HCT-15 colon = tested on: HCT-15 colon
HS 578T breast = tested on: HS 578T breast
KM12 colon = tested on: KM12 colon
SK-OV-3 ovarian = tested on: SK-OV-3 ovarian
U251 CNS = tested on: U251 CNS
HOP-92 NSCLC = tested on: HOP-92 NSCLC

| Molecule | GI50 (A549 NSCLC) | TGI (A549 NSCLC) | GI50 (HCT-116 colon) | TGI (HCT-116 colon) | GI50 (HCT-15 colon) | TGI (HCT-15 colon) | GI50 (HS 578T breast) | TGI (HS 578T breast) | GI50 (KM12 colon) | TGI (KM12 colon) | GI50 (SK-OV-3 ovarian) | TGI (SK-OV-3 ovarian) | GI50 (U251 CNS) | TGI (U251 CNS) | TGI (HOP-92 NSCLC) | GI50 (HOP-92 NSCLC) |
| --- | --- | --- | --- | --- | --- | --- | --- | --- | --- | --- | --- | --- | --- | --- | --- | --- |
| Cc1ccc(NC2=C(Cl)C(=O)N(Cc3ccccc3)C2=O)cc1Cl | 5740 nM | 18.8 µM | 3.01 µM | 12.5 µM | 5.4 µM | 21.4 µM | 10.6 µM | 33.9 µM | 13700 nM | 26.6 µM | 19.4 µM | > 100 µM | 3750 nM | 15.9 µM | – | – |
| O=C(O)c1ccccc1-c1ccccc1C(=O)Nc1ccc2c(c1)[nH]c(=O)c1ccccc12 | – | > 100 µM | – | > 100 µM | – | > 100 µM | – | > 100 µM | – | > 100 µM | – | > 100 µM | – | > 100 µM | > 100 µM | – |
| COc1ccc(-c2nc(N3CCOCC3)c3sc(CN(C)c4ncc(C(=O)NO)cn4)cc3n2)cn1 | < 10 nM | 0.0625 µM | – | – | – | – | < 0.0122 µM | 0.155 µM | – | – | – | – | – | – | 0.0508 µM | 14.7 nM |
| COc1ccc(-c2nn(-c3cccc(NC(=O)c4cccc(C(F)(F)F)c4)c3)cc2-c2ccncc2)cc1Cl | 2700 nM | > 100 µM | 3.05 µM | > 100 µM | 2 µM | > 100 µM | 1.54 µM | 8.74 µM | 1350 nM | 9.7 µM | 3.91 µM | > 100 µM | 1800 nM | 17.6 µM | 6.54 µM | 1000 nM |
| COc1ccc(CCN2CCC(Nc3nc4ccccc4n3Cc3ccc(F)cc3)CC2)cc1 | 1820 nM | 3.75 µM | 1.21 µM | 2.44 µM | 1.51 µM | 3.16 µM | – | – | 1710 nM | 3.13 µM | 1.9 µM | 3.44 µM | 1470 nM | 2.89 µM | 2.29 µM | 406 nM |
| Cc1cc(=O)oc2c(OS(C)(=O)=O)c(OS(C)(=O)=O)ccc12 | – | > 100 µM | – | > 100 µM | – | > 100 µM | – | > 100 µM | – | > 100 µM | – | – | – | > 100 µM | > 100 µM | – |
| O=C(O)CP(=O)(O)O | – | > 100 µM | – | > 100 µM | – | > 100 µM | – | > 100 µM | – | > 100 µM | – | > 100 µM | – | > 100 µM | > 100 µM | – |
| NC1=CC(=O)c2nc3ccccc3c3ccnc1c23 | 132 nM | > 21.6 µM | 3.99 µM | > 100 µM | 0.622 µM | > 100 µM | 0.766 µM | 5.73 µM | 3050 nM | > 65.9 µM | 12 µM | > 52.9 µM | 2170 nM | > 45.2 µM | – | – |
| CC1OC(n2c3ccccc3c3c4c(c5c6ccccc6[nH]c5c32)C(=O)N(CCN2CCOCC2)C4=O)CC(O)C1O (stereo not given) | 2510 nM | 10.4 µM | 1.33 µM | 6.92 µM | 2.34 µM | 13.5 µM | 6.32 µM | 16.2 µM | 2640 nM | 10.5 µM | 2.29 µM | 9.77 µM | 1240 nM | 7.19 µM | 15.8 µM | 7770 nM |
| Nc1ccc(-c2nc3ccccc3o2)cc1S | 14300 nM | 41.5 µM | 15.1 µM | 28.3 µM | 16.5 µM | 30.3 µM | 16.4 µM | 63.8 µM | 8100 nM | 35.2 µM | 23.2 µM | 65.1 µM | 10800 nM | 22.7 µM | 42.3 µM | 18800 nM |
| CC1(C)N=C(N)N=C(N)N1c1cccc(CCCCOc2ccccc2)c1 | 56.2 nM | 98.8 µM | < 0.01 µM | > 100 µM | 3.01 µM | > 100 µM | 10.2 µM | 37.3 µM | 39.8 nM | 25 µM | 1.91 µM | > 100 µM | 48.8 nM | 55.7 µM | 30.3 µM | 2260 nM |
| OCC1OC2OC3C(CO)OC(OC4C(CO)OC(OC5C(CO)OC(OC6C(CO)OC(OC7C(CO)OC(OC1C(O)C2O)C(O)C7O)C(O)C6O)C(O)C5O)C(O)C4O)C(O)C3O (stereo not given) (tested in a mixture with another compound) | – | > 100 µM | – | > 100 µM | – | > 100 µM | – | > 100 µM | – | > 100 µM | – | > 100 µM | – | > 100 µM | > 100 µM | – |
| H-HIIKKIRTWYRKAWHVLGKV-NH2 | 5510 nM | > 100 µM | 17.5 µM | 42 µM | 4.24 µM | 64.7 µM | 3.56 µM | 18.7 µM | 2490 nM | 6.58 µM | 6.36 µM | 22.2 µM | 7170 nM | > 100 µM | 6.75 µM | 2110 nM |
| NC(=O)Nc1c([N+](=O)[O-])cc(C(F)(F)F)cc1[N+](=O)[O-] | – | > 100 µM | – | > 100 µM | – | > 100 µM | – | – | – | > 100 µM | – | – | – | > 100 µM | > 100 µM | – |
| C=CC[C@@H]1/C=C(\C)C[C@H](C)C[C@H](OC)[C@H]2O[C@@](O)(C(=O)C(=O)N3CCCC[C@H]3C(=O)O[C@H](/C(C)=C/C3CC[C@@H](O)[C@H](OC)C3)[C@H](C)[C@@H](O)CC1=O)[C@H](C)C[C@@H]2OC (stereo not given in full) | 12700 nM | 25.7 µM | 13.8 µM | 26.7 µM | 17.2 µM | 38.1 µM | 21.9 µM | 65.9 µM | 14900 nM | 28.7 µM | 16.7 µM | 31.2 µM | 14200 nM | 27.7 µM | – | – |
| Cc1cc2cc3cc(C)c(N)cc3[n+](C)c2cc1N | 1000 nM | 10.9 µM | 1.15 µM | 4.66 µM | 2.65 µM | 11.7 µM | 1.12 µM | 8.72 µM | 1100 nM | 4.29 µM | 2.09 µM | 11 µM | 339 nM | 3.17 µM | 5.99 µM | 1440 nM |
| O=C1CCC(N2Cc3c(C#CCCCNC(=O)c4cc5c(o4)C(=O)c4ccccc4C5=O)cccc3C2=O)C(=O)N1 (stereo not given) | 12600 nM | 32.9 µM | 3.09 µM | 10.3 µM | 16.4 µM | 45.4 µM | 2.39 µM | 5.64 µM | 4520 nM | 28.6 µM | 15.9 µM | 30.4 µM | 2870 nM | 8.07 µM | 26 µM | 9070 nM |
| Cc1sc(NC2=NC(=O)/C(=C\c3ccccc3)S2)nc1-c1nc(NC2=NC(=O)/C(=C\c3ccccc3)S2)sc1C | 15500 nM | > 39.6 µM | 9.31 µM | 24.6 µM | 13 µM | > 39.6 µM | 3.13 µM | > 50 µM | 11100 nM | > 37.9 µM | – | – | 9270 nM | 22.9 µM | > 36.1 µM | 12000 nM |
